Measured values published in article PMC6001238, “Iterative Chemical Engineering of Vancomycin Leads to Novel Vancomycin Analogs With a High in Vitro Therapeutic Index” (Frontiers in Microbiology, 2018).
Converted amounts (≈) assume the structure as drawn.

What was measured:
E. faecalis VRE 6 = test: MIC, broth microdilution, vancomycin-resistant E. faecalis VRE 6 (VanA); assay type: cell-based, Enterococcus faecalis; conditions: for MIC: Enterococcus faecalis VRE 6 (vancomycin-resistant), read-out: MIC; for MIC-fold improvement vs. vancomycin: VRE 6, ratio of MIC of vancomycin and MIC of analogue
How it was run: (§1)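 Assayed by broth microdilution under CLSI antimicrobial testing rules. One case paired the analog or control drug with vancomycin at a 10 μM final concentration; water and inoculum-free broth were controls.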

MRSA KS6 = test: MIC, broth microdilution, MRSA KS6; assay type: cell-based, Staphylococcus aureus; conditions: for MIC-fold improvement vs. vancomycin: MRSA KS6, ratio of MIC of vancomycin and MIC of analogue; for MIC: Staphylococcus aureus MRSA KS6, read-out: MIC
How it was run: as §1

[1] = system: Murine leukemia (L1210) cells; test: Cytostatic activity, L1210 cell proliferation; assay type: cell-based; conditions: mean ± SD of three experiments; highest concentration tested 250 µM; 2 days; read-out: Toxicity (IC50) L1210
How it was run: (§2)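 Readout: Coulter cell number after drug exposure at 37°C. Durations differ by line (L1210 2 days; CEM 3 days; HeLa 4 days). Stock suspension 300,000–500,000 cells/mL, diluted by mixing with compound. Endpoint: IC50 vs negative control.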

E. faecalis VSE 1 = test: MIC, broth microdilution, vancomycin-sensitive E. faecalis (VSE 1); assay type: cell-based, Enterococcus faecalis; conditions: for MIC: Enterococcus faecalis VSE 1 (vancomycin-sensitive), read-out: MIC; for MIC-fold improvement vs. vancomycin: VSE 1, ratio of MIC of vancomycin and MIC of analogue
How it was run: as §1

E. faecalis VRE 53 = test: MIC, broth microdilution, vancomycin-resistant E. faecalis VRE 53 (VanA); assay type: cell-based, Enterococcus faecalis; conditions: for MIC: Enterococcus faecalis VRE 53 (vancomycin-resistant), read-out: MIC; for MIC-fold improvement vs. vancomycin: VRE 53, ratio of MIC of vancomycin and MIC of analogue
How it was run: as §1

[2] = system: L1210, CEM and HeLa cell lines; test: Cytostatic activity, average or summary over L1210, CEM and HeLa; assay type: cell-based; conditions: average of L1210, CEM and HeLa; read-out: Toxicity (IC50) Average
How it was run: as §2

S. aureus VRSA = test: MIC, broth microdilution, vancomycin-resistant S. aureus (VRSA); assay type: cell-based, Staphylococcus aureus; conditions: for MIC: Staphylococcus aureus VRSA, read-out: MIC; for MIC-fold improvement vs. vancomycin: VRSA, ratio of MIC of vancomycin and MIC of analogue
How it was run: as §1

[3] = system: human T-lymphocyte (CEM) cells; test: Cytostatic activity, CEM cell proliferation; assay type: cell-based; conditions: mean ± SD of three experiments; highest concentration tested 250 µM; 3 days; read-out: Toxicity (IC50) CEM
How it was run: as §2

S. aureus VISA/HIP5827 = test: MIC, broth microdilution, vancomycin-intermediate S. aureus VISA HIP5827; assay type: cell-based, Staphylococcus aureus; conditions: for MIC: Staphylococcus aureus VISA/HIP5827, read-out: MIC; for MIC-fold improvement vs. vancomycin: VISA/HIP5827, ratio of MIC of vancomycin and MIC of analogue
How it was run: as §1

E. faecalis VRE 37 = test: MIC, broth microdilution, vancomycin-resistant E. faecalis VRE 37 (VanA); assay type: cell-based, Enterococcus faecalis; conditions: for MIC: Enterococcus faecalis VRE 37 (vancomycin-resistant), read-out: MIC; for MIC-fold improvement vs. vancomycin: VRE 37, ratio of MIC of vancomycin and MIC of analogue
How it was run: as §1

MRSA KS1 = test: MIC, broth microdilution, MRSA KS1; assay type: cell-based, Staphylococcus aureus; conditions: for MIC-fold improvement vs. vancomycin: MRSA KS1, ratio of MIC of vancomycin and MIC of analogue; for MIC: Staphylococcus aureus MRSA KS1, read-out: MIC
How it was run: as §1

[4] = system: human cervix carcinoma (HeLa) cells; test: Cytostatic activity, HeLa cell proliferation; assay type: cell-based; conditions: mean ± SD of three experiments; highest concentration tested 250 µM; 4 days; read-out: Toxicity (IC50) HeLa
How it was run: as §2

E. faecalis VRE 29 = test: MIC, broth microdilution, vancomycin-resistant E. faecalis VRE 29 (VanA); assay type: cell-based, Enterococcus faecalis; conditions: for MIC: Enterococcus faecalis VRE 29 (vancomycin-resistant), read-out: MIC; for MIC-fold improvement vs. vancomycin: VRE 29, ratio of MIC of vancomycin and MIC of analogue
How it was run: as §1

[5] = system: S. aureus VSSA (ATCC 6538); test: MIC, broth microdilution, vancomycin-sensitive S. aureus (VSSA/MSSA, ATCC 6538); assay type: cell-based, Staphylococcus aureus; conditions: for MIC: Staphylococcus aureus VSSA, read-out: MIC; for MIC-fold improvement vs. vancomycin: VSSA, ratio of MIC of vancomycin and MIC of analogue
How it was run: as §1

MRSA KS89 = test: MIC, broth microdilution, MRSA KS89; assay type: cell-based, Staphylococcus aureus; conditions: for MIC-fold improvement vs. vancomycin: MRSA KS8, ratio of MIC of vancomycin and MIC of analogue; for MIC: Staphylococcus aureus MRSA KS8, read-out: MIC
How it was run: as §1

MRSA KS2 = test: MIC, broth microdilution, MRSA KS2; assay type: cell-based, Staphylococcus aureus; conditions: for MIC-fold improvement vs. vancomycin: MRSA KS2, ratio of MIC of vancomycin and MIC of analogue; for MIC: Staphylococcus aureus MRSA KS2, read-out: MIC
How it was run: as §1

| Structure (SMILES) | MIC (E. faecalis VRE 6) [µM] | MIC-fold improvement vs. vancomycin (E. faecalis VRE 6) | MIC-fold improvement vs. vancomycin (MRSA KS6) | MIC (MRSA KS6) [µM] | IC50 [1] [µM] | MIC (E. faecalis VSE 1) [µM] | MIC-fold improvement vs. vancomycin (E. faecalis VSE 1) | MIC (E. faecalis VRE 53) [µM] | MIC-fold improvement vs. vancomycin (E. faecalis VRE 53) | IC50 [2] [µM] | MIC (S. aureus VRSA) [µM] | MIC-fold improvement vs. vancomycin (S. aureus VRSA) | IC50 [3] [µM] | MIC (S. aureus VISA/HIP5827) [µM] | MIC-fold improvement vs. vancomycin (S. aureus VISA/HIP5827) | MIC (E. faecalis VRE 37) [µM] | MIC-fold improvement vs. vancomycin (MRSA KS1) | MIC (MRSA KS1) [µM] | IC50 [4] [µM] | MIC (E. faecalis VRE 29) [µM] | other results |
| --- | --- | --- | --- | --- | --- | --- | --- | --- | --- | --- | --- | --- | --- | --- | --- | --- | --- | --- | --- | --- | --- |
| CNC(CC(C)C)C(=O)NC1C(=O)NC(CC(N)=O)C(=O)NC2C(=O)NC3C(=O)NC(C(=O)NC(C(=O)NCCCNC(=O)c4ccc(C(F)(F)F)cc4)c4cc(O)cc(O)c4-c4cc3ccc4O)C(O)c3ccc(c(Cl)c3)Oc3cc2cc(c3OC2OC(CO)C(O)C(O)C2OC2CC(C)(N)C(O)C(C)O2)Oc2ccc(cc2Cl)C1O (centres unmarked) [Vanc-32] | 3.13 (≈ 5.25 µg/mL) | 64 | 2 | 0.39 (≈ 0.654 µg/mL) | 164 ± 46 | 0.39 (≈ 0.654 µg/mL) | 4 | 50 (≈ 83.9 µg/mL) | 8 | 157 | 6.25 (≈ 10.5 µg/mL) | 16 | 200 ± 12 | 0.78 (≈ 1.31 µg/mL) | 8 | 25 (≈ 41.9 µg/mL) | 2 | 0.39 (≈ 0.654 µg/mL) | 106 ± 2 | 12.5 (≈ 21 µg/mL) | MIC-fold improvement vs. vancomycin (E. faecalis VRE 37): 16; MIC-fold improvement vs. vancomycin (E. faecalis VRE 29): 32; MIC [5]: 0.78 µM (≈ 1.31 µg/mL); MIC-fold improvement vs. vancomycin [5]: 1; MIC-fold improvement vs. vancomycin (MRSA KS89): 2; MIC (MRSA KS89): 0.39 µM (≈ 0.654 µg/mL); MIC-fold improvement vs. vancomycin (MRSA KS2): 2; MIC (MRSA KS2): 0.39 µM (≈ 0.654 µg/mL) |
| CN[C@H](CC(C)C)C(=O)N[C@H]1C(=O)N[C@@H](CC(N)=O)C(=O)N[C@H]2C(=O)N[C@H]3C(=O)N[C@H](C(=O)N[C@H](C(=O)NCCNC(=O)/C=C/c4ccc(Cl)cc4Cl)c4cc(O)cc(O)c4-c4cc3ccc4O)[C@H](O)c3ccc(c(Cl)c3)Oc3cc2cc(c3O[C@@H]2O[C@H](CO)[C@@H](O)[C@H](O)[C@H]2O[C@H]2C[C@](C)(N)[C@H](O)[C@H](C)O2)Oc2ccc(cc2Cl)[C@H]1O [Vanc-51] | 6.25 (≈ 10.6 µg/mL) | 32 | 4 | 0.20 (≈ 0.338 µg/mL) | 80 ± 13 | 0.39 (≈ 0.659 µg/mL) | 4 | 12.5 (≈ 21.1 µg/mL) | 32 | 89 | 0.39 (≈ 0.659 µg/mL) | 256 | 82 ± 21 | 0.78 (≈ 1.32 µg/mL) | 8 | 12.5 (≈ 21.1 µg/mL) | 4 | 0.20 (≈ 0.338 µg/mL) | 106 ± 21 | 12.5 (≈ 21.1 µg/mL) | MIC-fold improvement vs. vancomycin (E. faecalis VRE 29): 32; MIC [5]: 0.39 µM (≈ 0.659 µg/mL); MIC-fold improvement vs. vancomycin [5]: 2; MIC-fold improvement vs. vancomycin (MRSA KS89): 4; MIC (MRSA KS89): 0.20 µM (≈ 0.338 µg/mL); MIC-fold improvement vs. vancomycin (MRSA KS2): 4; MIC (MRSA KS2): 0.20 µM (≈ 0.338 µg/mL) |
| CNC(CC(C)C)C(=O)NC1C(=O)NC(CC(N)=O)C(=O)NC2C(=O)NC3C(=O)NC(C(=O)NC(C(=O)NCCCNC(=O)c4ccc5cc(NS(=O)(=O)c6ccccc6)ccc5c4)c4cc(O)cc(O)c4-c4cc3ccc4O)C(O)c3ccc(c(Cl)c3)Oc3cc2cc(c3OC2OC(CO)C(O)C(O)C2OC2CC(C)(N)C(O)C(C)O2)Oc2ccc(cc2Cl)C1O (centres unmarked) [Vanc-63] | 3.13 (≈ 5.68 µg/mL) | 64 | 2 | 0.39 (≈ 0.708 µg/mL) | > 250 | 0.39 (≈ 0.708 µg/mL) | 4 | 25 (≈ 45.4 µg/mL) | 16 | 190 | 0.78 (≈ 1.42 µg/mL) | 128 | ≥ 250 | 0.78 (≈ 1.42 µg/mL) | 8 | 12.5 (≈ 22.7 µg/mL) | 2 | 0.39 (≈ 0.708 µg/mL) | 69 ± 74 | 6.25 (≈ 11.3 µg/mL) | MIC-fold improvement vs. vancomycin (E. faecalis VRE 29): 64; MIC [5]: 0.39 µM (≈ 0.708 µg/mL); MIC-fold improvement vs. vancomycin [5]: 2; MIC-fold improvement vs. vancomycin (MRSA KS89): 2; MIC (MRSA KS89): 0.39 µM (≈ 0.708 µg/mL); MIC-fold improvement vs. vancomycin (MRSA KS2): 2; MIC (MRSA KS2): 0.39 µM (≈ 0.708 µg/mL) |
| CNC(CC(C)C)C(=O)NC1C(=O)NC(CC(N)=O)C(=O)NC2C(=O)NC3C(=O)NC(C(=O)NC(C(=O)NCCCNC(=O)c4ccc5cc(NS(=O)(=O)c6ccc(C)cc6)ccc5c4)c4cc(O)cc(O)c4-c4cc3ccc4O)C(O)c3ccc(c(Cl)c3)Oc3cc2cc(c3OC2OC(CO)C(O)C(O)C2OC2CC(C)(N)C(O)C(C)O2)Oc2ccc(cc2Cl)C1O (centres unmarked) [Vanc-65] | 3.13 (≈ 5.72 µg/mL) | 64 | 2 | 0.39 (≈ 0.713 µg/mL) | > 250 | 0.39 (≈ 0.713 µg/mL) | 4 | 25 (≈ 45.7 µg/mL) | 16 | 185 | 0.39 (≈ 0.713 µg/mL) | 256 | ≥ 250 | 0.78 (≈ 1.43 µg/mL) | 8 | 6.25 (≈ 11.4 µg/mL) | 1 | 0.78 (≈ 1.43 µg/mL) | 54 ± 45 | 6.25 (≈ 11.4 µg/mL) | MIC-fold improvement vs. vancomycin (E. faecalis VRE 37): 64; MIC-fold improvement vs. vancomycin (E. faecalis VRE 29): 64; MIC [5]: 0.39 µM (≈ 0.713 µg/mL); MIC-fold improvement vs. vancomycin [5]: 2; MIC-fold improvement vs. vancomycin (MRSA KS89): 2; MIC (MRSA KS89): 0.39 µM (≈ 0.713 µg/mL); MIC-fold improvement vs. vancomycin (MRSA KS2): 4; MIC (MRSA KS2): 0.20 µM (≈ 0.366 µg/mL) |
